Experimental data from ChEMBL document CHEMBL4414572, “Curcumin analogues and their hybrid molecules as multifunctional drugs” (Eur J Med Chem, 2019).
≈ marks a conversion by molar mass, not a printed value. Blank lines part the entries; values can stand above or below the compound they belong to.

What was measured:
RAW264.7 = assay: Anti-inflammatory activity in mouse RAW264.7 cells assessed as inhibition of LPS/IFN-gamma-induced nitric oxide production preincubated for 24 hrs followed by LPS/IFN-gamma-stimulation and measured after 17 hrs by Griess assay; format: functional, cell-based
MDA-MB-231 = assay: Antiproliferative activity against human MDA-MB-231 cells 24 to 48 hrs by MTT assay; format: functional, cell-based
[1] = Antioxidant activity assessed as DPPH free radical scavenging activity after 30 mins; format: functional
MCF7 = assay: Cytotoxicity against human MCF7 cells assessed as reduction in cell viability by MTT assay; format: functional, cell-based
U-266 = assay: Cytotoxicity against human U266 cells assessed as reduction in cell viability; format: functional, cell-based
MM1.S = assay: Cytotoxicity against human MM1S cells assessed as reduction in cell viability; format: functional, cell-based
[2] = Cytotoxicity against human […] cells assessed as reduction in cell viability; format: functional, cell-based
Bacillus subtilis = assay: Antibacterial activity against Bacillus subtilis after 24 hrs by twofold serial dilution technique; format: functional
PC-3 = assay: Cytotoxicity against human PC3 cells assessed as reduction in cell viability by MTT assay; format: functional, cell-based
PANC-1 = assay: Cytotoxicity against human PANC1 cells assessed as reduction in cell viability by MTT assay; format: functional, cell-based
MIA PaCa-2 = assay: Cytotoxicity against human MIAPaCa2 cells assessed as reduction in cell viability by MTT assay; format: functional, cell-based
LS174T [3] = assay: Cytotoxicity against human LS174T cells assessed as reduction in cell viability by SRB assay; format: functional, cell-based
SW480 = assay: Cytotoxicity against human SW480 cells assessed as reduction in cell viability after 24 to 48 hrs by MTT assay; format: functional, cell-based
K562 [4] = assay: Cytotoxicity against human K562 cells assessed as reduction in cell viability after 48 hrs by SRB assay; format: functional, cell-based; conditions: K562, 48 h
HCT-15 = assay: Cytotoxicity against human HCT15 cells assessed as reduction in cell viability after 48 hrs by SRB assay; format: functional, cell-based; conditions: HCT-15, 48 h
LS174T [5] = assay: Cytotoxicity against human LS174T cells assessed as reduction in cell viability in presence of PTX by SRB assay relative to control; format: functional
LS174T [6] = assay: Cytotoxicity against human LS174T cells assessed as reduction in cell viability in presence of PTX by SRB assay; format: functional, cell-based
L02 = assay: Cytotoxicity against human LO2 cells assessed as reduction in cell viability after 24 hrs by MTT assay; format: cell-based; conditions: L02, 24 h
HeLa = assay: Cytotoxicity against human HeLa cells assessed as reduction in cell viability after 24 hrs by MTT assay; format: functional, cell-based
K562 [7] = assay: Cytotoxicity against human K562 cells assessed as reduction in cell viability after 24 hrs by MTT assay; format: functional, cell-based; conditions: K562, 24 h
SGC-7901 = assay: Cytotoxicity against human SGC7901 cells assessed as reduction in cell viability after 24 hrs by MTT assay; format: functional, cell-based; conditions: SGC-7901, 24 h
THP-1 = assay: Cytotoxicity against human THP1 cells assessed as reduction in cell viability after 24 hrs by MTT assay; format: functional, cell-based; conditions: THP-1, 24 h
HepG2 = assay: Cytotoxicity against human HepG2 cells assessed as reduction in cell viability after 24 hrs by MTT assay; format: functional, cell-based; conditions: HepG2, 24 h
A549 = assay: Cytotoxicity against human A549 cells assessed as reduction in cell viability after 24 hrs by MTT assay; format: functional, cell-based; conditions: A549, 24 h
[8] = Antioxidant activity assessed as DPPH free radical scavenging activity; format: functional
[9] = Inhibition of NFkappaB (unknown origin); parameters: species or system Homo sapiens

IC50 (RAW264.7): 4.9 µM
SMILES: O=C(/C=C(O)/C=C/c1ccc(O)c(O)c1)c1cc(Cl)ccc1O

IC50 (MDA-MB-231; mda-mb-231): 75.8 ppm
SMILES: COc1ccc(-c2nn(-c3ccccc3)cc2/C=C2\CCCC/C(=C\c3cn(-c4ccccc4)nc3-c3ccc(OC)cc3)C2=O)cc1

IC50 (MDA-MB-231; Homo sapiens, MDA-MB-231): 11.6 µM
SMILES: O=C1/C(=C/c2cn(-c3ccccc3)nc2-c2ccccc2)CCCC/C1=C\c1cn(-c2ccccc2)nc1-c1ccccc1

IC50 [1]: 10500 µM
SMILES: O=C1/C(=C/c2cn(-c3ccccc3)nc2-c2ccccc2)CNC/C1=C\c1cn(-c2ccccc2)nc1-c1ccccc1

SMILES: CCOC(OCC)c1ccc(/C=C2\CN(C)C/C(=C\c3ccc(C(OCC)OCC)cc3)C2=NO)cc1
IC50 (MCF7): 0.03 µM

SMILES: COc1cc(/C=C/C(=O)C(=Cc2ccc3c(c2)C(=O)N(C2CCC(=O)NC2=O)C3=O)C(=O)/C=C/c2ccc(O)c(OC)c2)ccc1O (stereo not given)
IC50 (U-266): 96 µM
IC50 (MM1.S): 6.44 µM
IC50 [2]: 4.55 µM

MIC (Bacillus subtilis): 3.12 µg/mL (≈ 5.61 µM)
SMILES: CCN1N=C(C(=NNc2ccccc2)C2=NN(CC)C(c3ccc(O)c(OC)c3)C2)CC1c1ccc(O)c(OC)c1 (stereo not given)

SMILES: CN1C/C(=C\c2ccc(N(C)C)cc2[N+](=O)[O-])C(=NO)/C(=C/c2ccc(N(C)C)cc2[N+](=O)[O-])C1
IC50 (PC-3): 0.02 µM
IC50 (PANC-1): 0.02 µM
IC50 (MIA PaCa-2): 0.02 µM
IC50 (MCF7): 0.02 µM

IC50 (RAW264.7): 9.6 µM
SMILES: O=C(/C=C(O)/C=C/c1ccc(O)c(O)c1)c1ccccc1O

IC50 (MDA-MB-231; mda-mb-231): 45.1 ppm
SMILES: O=C1/C(=C/c2cn(-c3ccccc3)nc2-c2ccccc2)CN(Cc2ccccc2)C/C1=C\c1cn(-c2ccccc2)nc1-c1ccccc1

SMILES: O=C1NC(/C=C/c2ccccc2)=NC/1=C\C=C\c1ccccc1
IC50 (LS174T [3]): 8.9 µM

IC50 (MDA-MB-231; mda-mb-231): 39.9 ppm
IC50 [1]: 6400 µM
SMILES: COc1ccc(-c2nn(-c3ccccc3)cc2/C=C2\CN(C)C/C(=C\c3cn(-c4ccccc4)nc3-c3ccc(OC)cc3)C2=O)cc1

IC50 (MDA-MB-231; mda-mb-231): 50.4 ppm
SMILES: O=C(/C=C/c1cn(-c2ccccc2)nc1-c1ccc([N+](=O)[O-])cc1)/C=C/c1cn(-c2ccccc2)nc1-c1ccc([N+](=O)[O-])cc1

SMILES: O=C(/C=C/c1c[nH]c2ccccc12)CC(=O)/C=C/c1c[nH]c2ccccc12
IC50 (SW480): 15 to 17 µM

SMILES: COc1cc(CCc2cc(CCc3ccc(OC(C)=O)c(OC)c3)on2)ccc1OC(C)=O
IC50 (K562 [4]): 3 µM
IC50 (HCT-15): 2.8 µM

SMILES: CCCNC(=O)/C(=C/C=C/c1ccccc1)NC(=O)/C=C/c1ccccc1
Activity (LS174T [5]): 16.2%
IC50 (LS174T [6]): 0.0038 µM

SMILES: COc1cc(/C=C/C=C2N=C(/C=C/c3ccccc3)NC\2=O)ccc1O
Activity (LS174T [5]): 2.5 - 45.7%
IC50 (LS174T [3]): 7.6 µM

SMILES: O=C1/C(=C/c2cc(/N=C/c3ccc(O)c(O)c3O)ccc2F)CNC/C1=C\c1cc(/N=C/c2ccc(O)c(O)c2O)ccc1F
IC50 (L02): < 2 µM
IC50 (HeLa): < 2 µM
IC50 (K562 [7]): < 2 µM
IC50 (SGC-7901): < 2 µM
IC50 (THP-1): < 2 µM
IC50 (HepG2): < 2 µM
IC50 (A549): < 2 µM

SMILES: COc1cc(/C=C/C(=O)/C=C/c2ccc3c(c2)C(=O)N(C2CCC(=O)NC2=O)C3=O)ccc1O (stereo not given)
IC50 (U-266): 2.33 µM
IC50 (MM1.S): 7.59 µM
IC50 [2]: 5.62 µM

IC50 (MDA-MB-231; mda-mb-231): 20.5 ppm
SMILES: CN1C/C(=C\c2cn(-c3ccccc3)nc2-c2ccccc2)C(=O)/C(=C/c2cn(-c3ccccc3)nc2-c2ccccc2)C1

IC50 [8]: 0.253 µg/mL (≈ 0.52 µM)
SMILES: COc1cc(/C=C/C(=O)C(=NNc2ccc(C)cc2)C(=O)/C=C/c2ccc(O)c(OC)c2)ccc1O

IC50 (MDA-MB-231; mda-mb-231): 32.4 ppm
SMILES: O=C1/C(=C/c2cn(-c3ccccc3)nc2-c2ccc([N+](=O)[O-])cc2)CCCC/C1=C\c1cn(-c2ccccc2)nc1-c1ccc([N+](=O)[O-])cc1

IC50 [9]: 2.8 µg/mL (≈ 5.99 µM)
SMILES: C=CC(=O)NC(c1ccccc1)C(C(=O)/C=C/c1cccc(O)c1)C(=O)/C=C/c1cccc(O)c1 (stereo not given)
